Results: patent US20060252800A1, “Anti-leishmania agent” (priority 2003, published 2006)

System: Leishmania (L. major)
Test: Leishmania protozoa proliferation inhibition assay
Type: cell-based
Details: for OD level (number of viable Leishmania protozoa): 48 hours at 27° C., absorbance 450 nm minus 630 nm; for IC50: calculated from the graphs of FIGS. 1 to 4 (concentration vs number of viable leishmania protozoa), read-out: Concentration inhibiting 50% leishmania proliferation
Description: After dissolving each of the obtained compounds in dimethylsulfoxide (hereinafter referred to as DMSO), the resultant was diluted by 9 steps in Medium 199 medium (Invitrogen) to the indicated concentration, filtrated with a membrane filter, and each of the filtration was made as a sample solution. […] By keeping the solution at 27° C., incubation was performed under 5% CO2, for 48 hours. Then, TetraColor ONE (tradename: Seikagaku Corporation) reagent was added thereto and further incubated for 6 hours. Then, the absorbance at a wavelength of 450 nm was measured for the 96-well microtiter plate with a microplate reader, the wave length of 630 nm was made as reference wave length, and in order to exclude background effect, the absorbance at 630 nm was excluded from the one at 450 nm, and the OD level was calculated as a level to indicate the number of viable Leishmania protozoa. The assay was performed by three wells at a time for each concentration of each sample, and the mean level was made as OD level. […] Amphotericin B was used as positive control. […] Inhibiting effect against […] protozoa for each sample was similar or more compared with that of Amtephotericin B.

[1] = Table 3, sample concentration 0.001 mg/ml
[2] = Table 3, sample concentration 0.002165 mg/ml
[3] = Table 3, sample concentration 0.0072171 mg/ml
[4] = Table 3, sample concentration 0.02406 mg/ml
[5] = Table 3, sample concentration 0.08019 mg/ml
[6] = Table 3, sample concentration 0.2673 mg/ml
[7] = Table 3, sample concentration 0.891 mg/ml
[8] = Table 3, sample concentration 2.97 mg/ml
[9] = Table 3, sample concentration 9.9 mg/ml
[10] = Table 3, sample concentration 33 mg/ml
[11] = Table 2, sample concentration 0.0001 mg/ml
[12] = Table 2, sample concentration 0.0007 mg/ml
[13] = Table 2, sample concentration 0.002 mg/ml
[14] = Table 2, sample concentration 0.008 mg/ml
[15] = Table 2, sample concentration 0.025 mg/ml
[16] = Table 2, sample concentration 0.084 mg/ml
[17] = Table 2, sample concentration 0.279 mg/ml
[18] = Table 2, sample concentration 0.93 mg/ml
[19] = Table 2, sample concentration 3.1 mg/ml
[20] = Table 2, sample concentration 2E−04 mg/ml
[21] = Table 1, sample concentration 0.001 mg/ml
[22] = Table 1, sample concentration 0.016384 mg/ml
[23] = Table 1, sample concentration 0.04096 mg/ml
[24] = Table 1, sample concentration 0.1024 mg/ml
[25] = Table 1, sample concentration 0.256 mg/ml
[26] = Table 1, sample concentration 0.64 mg/ml
[27] = Table 1, sample concentration 1.6 mg/ml
[28] = Table 1, sample concentration 4 mg/ml
[29] = Table 1, sample concentration 10 mg/ml
[30] = Table 1, sample concentration 25 mg/ml, mean of three wells

C[C@@H]1[C@H](O)[C@@H](C)/C=C/C=C/C=C/C=C/C=C/C=C/C=C/[C@H](O[C@@H]2O[C@H](C)[C@@H](O)[C@H](N)[C@@H]2O)C[C@@H]2O[C@](O)(C[C@@H](O)C[C@@H](O)[C@H](O)CC[C@@H](O)C[C@@H](O)CC(=O)O[C@H]1C)C[C@H](O)[C@H]2C(=O)O [Amphotericin B, reference compound]
OD level (number of viable Leishmania protozoa) (Table 1, positive control line, concentration 0.001 mg/ml): 0.428 | OD level (number of viable Leishmania protozoa) (Table 1, positive control line, concentration 0.0121094 mg/ml): 0.394 | OD level (number of viable Leishmania protozoa) (Table 1, positive control line, concentration 0.0242188 mg/ml): 0.373 | OD level (number of viable Leishmania protozoa) (Table 1, positive control line, concentration 0.0484375 mg/ml): 0.352 | OD level (number of viable Leishmania protozoa) (Table 1, positive control line, concentration 0.096875 mg/ml): 0.349 | OD level (number of viable Leishmania protozoa) (Table 1, positive control line, concentration 0.19375 mg/ml): 0.044 | OD level (number of viable Leishmania protozoa) (Table 1, positive control line, concentration 0.3875 mg/ml): 0.036 | OD level (number of viable Leishmania protozoa) (Table 1, positive control line, concentration 0.775 mg/ml): 0.036 | OD level (number of viable Leishmania protozoa) (Table 1, positive control line, concentration 1.55 mg/ml): 0.036 | OD level (number of viable Leishmania protozoa) (Table 1, positive control line, concentration 3.1 mg/ml): 0.034 | OD level (number of viable Leishmania protozoa) [1]: 0.351 | OD level (number of viable Leishmania protozoa) [2]: 0.338 | OD level (number of viable Leishmania protozoa) [3]: 0.325 | OD level (number of viable Leishmania protozoa) [4]: 0.331 | OD level (number of viable Leishmania protozoa) [5]: 0.311 | OD level (number of viable Leishmania protozoa) [6]: 0.273 | OD level (number of viable Leishmania protozoa) [7]: 0.051 | OD level (number of viable Leishmania protozoa) [8]: 0.029 | OD level (number of viable Leishmania protozoa) [9]: 0.029 | OD level (number of viable Leishmania protozoa) [10]: 0.030 | IC50: 140 nM

CN1/C(=c2\s/c(=C\c3cccc[n+]3C)n(Cc3ccccc3)c2=O)Sc2ccccc21.Cc1ccc(S(=O)(=O)[O-])cc1 [I (a), 2-[{5-(3-methyl-2(3H)-benzothiazolylidene)-4-oxo-3-benzyl-2-thiazolidinylidene}methyl]-1-methylpyridinium=p-toluenesulfonate]
OD level (number of viable Leishmania protozoa) [11]: 0.356 | OD level (number of viable Leishmania protozoa) [12]: 0.361 | OD level (number of viable Leishmania protozoa) [13]: 0.383 | OD level (number of viable Leishmania protozoa) [14]: 0.469 | OD level (number of viable Leishmania protozoa) [15]: 0.172 | OD level (number of viable Leishmania protozoa) [16]: 0.088 | OD level (number of viable Leishmania protozoa) [17]: 0.043 | OD level (number of viable Leishmania protozoa) [18]: 0.034 | OD level (number of viable Leishmania protozoa) [19]: 0.035 | OD level (number of viable Leishmania protozoa) [20]: 0.356 | IC50: 410 nM

CCn1c(=O)/c(=C2\Sc3ccccc3N2C)s/c1=C\c1cccc[n+]1Cc1ccc(C(=O)O)cc1.[Br-] [I (d), 1-(p-carboxyphenyl)methyl-2-[3-ethyl-{5-(3-methyl-2(3H)-benzothiazolylidene)-4-oxo-2-thiazolidinylidene}methyl]pyridinium=bromide]
OD level (number of viable Leishmania protozoa) [11]: 0.360 | OD level (number of viable Leishmania protozoa) [12]: 0.359 | OD level (number of viable Leishmania protozoa) [13]: 0.348 | OD level (number of viable Leishmania protozoa) [14]: 0.364 | OD level (number of viable Leishmania protozoa) [15]: 0.384 | OD level (number of viable Leishmania protozoa) [16]: 0.346 | OD level (number of viable Leishmania protozoa) [17]: 0.360 | OD level (number of viable Leishmania protozoa) [18]: 0.333 | OD level (number of viable Leishmania protozoa) [19]: 0.242 | OD level (number of viable Leishmania protozoa) [20]: 0.356 | IC50: 5300 nM

C=CCn1c(=Cc2cccc[n+]2C)sc(=C2Sc3ccccc3N2C)c1=O.Cc1ccc(S(=O)(=O)[O-])cc1 [IV (a), 2-[{5-(3-methyl-2(3H)-benzothiazolylidene)-4-oxo-3-(2-propenyl)-2-thiazolidinylidene}methyl]-1-methylpyridinium=p-toluenesulfonate]
OD level (number of viable Leishmania protozoa) [21]: 0.470 | OD level (number of viable Leishmania protozoa) [22]: 0.541 | OD level (number of viable Leishmania protozoa) [23]: 0.488 | OD level (number of viable Leishmania protozoa) [24]: 0.385 | OD level (number of viable Leishmania protozoa) [25]: 0.157 | OD level (number of viable Leishmania protozoa) [26]: 0.095 | OD level (number of viable Leishmania protozoa) [27]: 0.047 | OD level (number of viable Leishmania protozoa) [28]: 0.035 | OD level (number of viable Leishmania protozoa) [29]: 0.031 | OD level (number of viable Leishmania protozoa) [30]: 0.032 | IC50: 320 nM

CCn1c(=Cc2cc[n+](C)c3ccccc23)sc(=C2Sc3ccccc3N2C)c1=O.Cc1ccc(S(=O)(=O)[O-])cc1 [IV (b), 4-[{5-(3-methyl-2(3H)-benzothiazolylidene)-4-oxo-3-ethyl-2-thiazolidinylidene}methyl]-1-methylquinolium=p-toluene sulfonate]
OD level (number of viable Leishmania protozoa) [11]: 0.361 | OD level (number of viable Leishmania protozoa) [12]: 0.354 | OD level (number of viable Leishmania protozoa) [13]: 0.362 | OD level (number of viable Leishmania protozoa) [14]: 0.380 | OD level (number of viable Leishmania protozoa) [15]: 0.409 | OD level (number of viable Leishmania protozoa) [16]: 0.211 | OD level (number of viable Leishmania protozoa) [17]: 0.102 | OD level (number of viable Leishmania protozoa) [18]: 0.044 | OD level (number of viable Leishmania protozoa) [19]: 0.037 | OD level (number of viable Leishmania protozoa) [20]: 0.351

CCn1c(=Cc2ccc3ccccc3[n+]2C)sc(=C2Sc3ccccc3N2C)c1=O.[I-] [IV (c), 2-[{5-(3-methyl-2(3H)-benzothiazolylidene)-4-oxo-3-ethyl-2-thiazolidinylidene}methyl]-1-methylquinolinium=iodide]
OD level (number of viable Leishmania protozoa) [21]: 0.472 | OD level (number of viable Leishmania protozoa) [22]: 0.470 | OD level (number of viable Leishmania protozoa) [23]: 0.474 | OD level (number of viable Leishmania protozoa) [24]: 0.496 | OD level (number of viable Leishmania protozoa) [25]: 0.398 | OD level (number of viable Leishmania protozoa) [26]: 0.158 | OD level (number of viable Leishmania protozoa) [27]: 0.117 | OD level (number of viable Leishmania protozoa) [28]: 0.069 | OD level (number of viable Leishmania protozoa) [29]: 0.032 | OD level (number of viable Leishmania protozoa) [30]: 0.032 | IC50: 820 nM

CCn1c(=Cc2sc3ccccc3[n+]2C)sc(=C2C=Cc3ccccc3N2C)c1=O.Cc1ccc(S(=O)(=O)[O-])cc1 [IV (d)]
OD level (number of viable Leishmania protozoa) [1]: 0.346 | OD level (number of viable Leishmania protozoa) [2]: 0.357 | OD level (number of viable Leishmania protozoa) [3]: 0.339 | OD level (number of viable Leishmania protozoa) [4]: 0.341 | OD level (number of viable Leishmania protozoa) [5]: 0.359 | OD level (number of viable Leishmania protozoa) [6]: 0.348 | OD level (number of viable Leishmania protozoa) [7]: 0.365 | OD level (number of viable Leishmania protozoa) [8]: 0.395 | OD level (number of viable Leishmania protozoa) [9]: 0.344 | OD level (number of viable Leishmania protozoa) [10]: 0.035
